# Values quoted from earlier work, collected in patent US20150342920A1, “DERMATOLOGICAL COMPOSITIONS COMPRISING AT LEAST ONE RETINOID COMPOUND, AN ANTI-IRRITANT COMPOUND AND BENZOYL PEROXIDE” (GALDERMA RESEARCH & DEVELOPMENT, priority 2007, published 2015).
smiles,measurement,setting,value
O=C(OOC(=O)c1ccccc1)c1ccccc1 [benzoyl peroxide],degradation of benzoyl peroxide in solution,"in solution, ethanol, propylene glycol and mixtures of PEG 400 and water, depends on type and concentration of solvent",degrades more or less rapidly
same,degradation of benzoyl peroxide in suspension,"in suspension (disperse form) in water and in propylene glycol, after 90 days of storage",not degraded
